{
  "source": "patent US10500222B2",
  "about": "“Compositions and methods relating to treatment of infection” (Wayne State University, priority 2015, dated 2019)",
  "test_system": "P. aeruginosa KEI 1025 infected cornea",
  "assay": "Ocular response to bacterial infection (clinical score, slit lamp), KEI 1025 keratitis",
  "type": "in vivo, C57BL/6 (B6) mice",
  "details": "for opacity, slit lamp photographs / clinical scores: vs PBS",
  "source_text": "P. aeruginosa strains, KEI 1025, a non-cytotoxic clinical isolate strain expressing exoT and exoS, and not expressing exoU, described in Estrellas P S, Jr., et al., Curr Eye Res. 2000; 20:157-165 (obtained from Kresge Eye Institute, Detroit, Mich.), and a cytotoxic strain, 19660, expressing exoU, described in Finck-Barbancon V, et al., Mol Microbiol. 1997; 25:547-557; and Fleiszig S M, et al., Infect Immun. 1997; 65:579-586 (obtained from American Type Culture Collection, ATCC, Manassas, Va.), were grown in peptone tryptic soy broth (PTSB) medium in a rotary shaker water bath at 37° C. and 150 rpm for 18 h to an optical density (measured at 540 nm) between 1.3-1.8. Bacterial cultures were pelleted by centrifugation at 5,500 g for 10 min. Pellets were washed once with sterile saline, re-centrifuged, re-suspended and diluted in sterile saline. Anesthetized (using anhydrous ethyl ether) mice were placed beneath a stereoscopic microscope at 40× magnification. The left cornea was scarified with three 1-mm incisions using a sterile 25^5/8 gauge needle. The wounded corneal surface was topically treated with 5 μl containing 1×10^7 CFU/μl (KEI 1025) or 1×10^6 CFU/μl (ATCC strain 19660) of the P. aeruginosa suspension.\nAn established corneal disease grading scale, described in detail in Hazlett L D, et al., Invest Ophthalmol Vis Sci. 1987; 28:1978-1985, was used to assign a clinical score value to each infected eye at 1, 3 and 5 days post infection (p.i.). Clinical scores were designated as: 0=clear or slight opacity, partially or fully covering the pupil; +1=slight opacity, fully covering the anterior segment; +2=dense opacity, partially or fully covering the pupil; +3=dense opacity, covering the entire anterior segment; and +4=corneal perforation or phthisis. Clinical scores were used to statistically compare disease severity and were accompanied by photographs using a slit lamp (5 days p.i.) to confirm and illustrate the response.\nThe left eyes of B6 mice (n=5/group/time) were injected with 5 μl of 2 μg/μl glycyrrhizin (GLY) (Sigma-Aldrich, St. Louis, Mo.) or PBS (control) subconjunctivally, one day before infection. Similar treatment was done using carbenoxolone (CBX) (Sigma-Aldrich, St. Louis, Mo.). All mice were injected intraperitoneally (IP) at 1 and 3 days p.i. with 100 μl of GLY (2 μg/μl) or CBX (1 μg/μl). PBS served as control for all these experiments. In a separate similar experiment mice were treated one day before infection with GLY subconjunctivally and injected intraperitoneally (i.p.) with GLY plus recombinant (r) HMGB1 (1 μg/100 μl) or GLY plus PBS. IP injections were similarly given at 1 and 3 days p.i. In an additional experiment, KEI 1025 infected B6 mice were treated with 5 μl of 2 μg/μl GLY subconjunctivally at 6 hours p.i. and injected intraperitoneally at 1 and 3 days p.i. with 100 μl of GLY (2 μg/μl).",
  "key": {"[1]": {"details": "subconj. 1 day before infection + IP 1 and 3 days p.i., 5 days p.i."}},
  "note": "“Also recorded” adds a separate entry of the source.",
  "data": [
    {"molecule": "CC1(C)[C@@H](O[C@H]2O[C@H](C(=O)O)[C@@H](O)[C@H](O)[C@H]2O[C@@H]2O[C@H](C(=O)O)[C@@H](O)[C@H](O)[C@H]2O)CC[C@]2(C)[C@H]3C(=O)C=C4[C@@H]5C[C@@](C)(C(=O)O)CC[C@]5(C)CC[C@@]4(C)[C@]3(C)CC[C@@H]12", "note": "[GLY, glycyrrhizin]", "values": [
      {"measurement": "opacity, slit lamp photographs", "setting": "post treatment: subconj. 6 hours p.i. + IP 1 and 3 days p.i.", "value": "decreased opacity"},
      {"measurement": "clinical scores", "setting": "post treatment: subconj. 6 hours p.i. + IP 1 and 3 days p.i., 1 day p.i.", "value": "seen only at 3 and 5 days p.i."},
      {"measurement": "clinical scores", "setting": "post treatment: subconj. 6 hours p.i. + IP 1 and 3 days p.i., 3 days p.i.", "value": "Reduced clinical scores"},
      {"measurement": "clinical scores", "setting": "post treatment: subconj. 6 hours p.i. + IP 1 and 3 days p.i., 5 days p.i.", "value": "Reduced clinical scores"},
      {"measurement": "infiltrate, slit lamp photographs", "setting": "pretreatment, 5 days p.i., GLY compared with CBX treated eyes", "value": "less infiltrate"},
      {"measurement": "clinical scores", "setting": "subconj. 1 day before infection + IP 1 and 3 days p.i., 1 day p.i.", "value": "significantly less corneal disease with lower clinical scores; also recorded: reduced significantly"},
      {"measurement": "clinical scores", "setting": "subconj. 1 day before infection + IP 1 and 3 days p.i., 3 days p.i.", "value": "significantly less corneal disease with lower clinical scores; also recorded: reduced significantly"},
      {"measurement": "clinical scores", "setting": "[1]", "value": "significantly less corneal disease with lower clinical scores; also recorded: reduced significantly"},
      {"measurement": "opacity, slit lamp photographs", "setting": "[1]", "value": "reduced opacity"}
    ]}
  ]
}
